# Tests used:
# depression = experiment: Case history: person seriously depressed for over 10 years; assay type: in vivo, human; settings: one patient; ibuprofen alone
# Description: Because there is evidence of elevated formation of prostaglandins in depression, they were given a combined COX-1 and COX-2 inhibitor, ibuprofen. […] The ibuprofen was stopped and they were treated with ethyl-eicosapentaenoate at a dose of 1 g/day. This seemed to have a modest effect but they remained far from well.
# [1] = test system: forgetfulness, possibly developing Alzheimer's disease (AD); experiment: Case history: forgetful person, possible Alzheimer's disease; assay type: in vivo, human; settings: one patient; indomethacin alone over six months or so
# Description: A person had become very forgetful and their family was concerned that they might be developing Alzheimer's disease (AD). Because there is evidence that the NSAID indomethacin may be able to slow down the progression of AD, their child, who was a doctor, prescribed indomethacin. […] Because of animal work on the beneficial effects of AA in the aging rat brain, 800 mg of AA in triglyceride form was added to the treatment regime.
Compound,effect on depression (depression),effect on forgetfulness [1]
CC(C)Cc1ccc(C(C)C(=O)O)cc1 (centres unmarked) [ibuprofen],marginal effect but this was not apparent to observers,–
COc1ccc2c(c1)c(CC(=O)O)c(C)n2C(=O)c1ccc(Cl)cc1 [indomethacin],–,may have had a slight effect but there was no dramatic change
